Measurements from publication PMC3925085, “Subditine, a New Monoterpenoid Indole Alkaloid from Bark of Nauclea subdita (Korth.) Steud. Induces Apoptosis in Human Prostate Cancer Cells” (PLoS ONE, 2014).

Experiments:
[1] = test system: RWPE-1 human normal prostate epithelial cells; assay: MTT cell proliferation assay, RWPE-1; type: cell-based; conditions: 24 hours, RWPE-1 normal cells, mean ± S.D.
Experimental: Human prostate normal cell line (RWPE-1) and human prostate cancer cell lines; LNCaP and PC-3, were purchased from the American Type Culture Collection (ATCC, Manassas, Virginia, USA). LNCaP and PC-3 cells were grown in Roswell Park Memorial Institute medium (RPMI) supplemented with 10% heat-inactivated fetal bovine serum (FBS, Sigma-Aldrich, St. Louis, MO), 1% penicillin and streptomycin. RWPE-1 cells were maintained in Keratinocyte Serum Free Medium (K-SFM, ATCC) supplemented with bovine pituitary extract (BPE) and human recombinant epidermal growth factor (EGF). Mediums were supplemented with 10% heat-inactivated fetal calf serum (Sigma.), 100 U/ml penicillin and […] streptomycin (Flowlab, Sydney, Australia). All cells were maintained in a humidified atmosphere of 5% CO2 in air at 37°C incubator.
The anti-proliferative activity was evaluated by performing MTT assays as previously described with minor modifications. Briefly, cells were seeded 24 hours prior to treatment in a 96-well plate at 5×10^4 cells/well in order to obtain 70% to 80% confluent cultures. The compounds were dissolved in DMSO (Sigma Chemical Co., St. Louis, Missouri, USA) followed by a 2×serial dilution for 10 points ranged from 0.825 µM to 100 µM. The 96-well plate was incubated for 24 hours at 37°C in a humidified atmosphere with 5% CO2. At the end of incubation, 50 µl of MTT solution (2 mg/ml; Sigma) was added to each well. The plate was then incubated for 4 hours. All medium was removed and the purple formazan crystal formed at the bottom of the wells was dissolved with 200 µl DMSO for 20 minutes. The absorbance at 570 nm was read on a spectrophotometric plate reader (Hidex). The proportion of surviving cells was calculated as: […]
Dose-response curves were constructed to obtain the IC50 values. Experimental data were derived from 3 independent experiments. The selectivity index was obtained by mean IC50 RWPE-1/mean IC50 of LNCaP or PC-3.

[2] = test system: caspase-3/7 in PC-3 cells; assay: Caspase-Glo 3/7 bioluminescent assay, PC-3; type: cell-based, human
Experimental: (§1) A time-dependent study of caspase-3/7, -8, and -9 activities was performed in triplicates using assay kits Caspase-Glo 3/7, 8, and 9 (Promega Corp.,Madison,WI, USA) on white 96-well microplate as described previously. A total of 10,000 cells per well was seeded and treated with […] of subditine (1) for 6, 12, 18, 24, and 30 hours. Then, 100 µL of the caspase-Glo reagent was added, incubated at room temperature for 30 minutes and measured using Tecan Infinite 200 Pro (Tecan, Mannedorf, Swizerland) microplate reader.

[3] = test system: caspase-9 in LNCaP cells; assay: Caspase-Glo 9 bioluminescent assay, LNCaP; type: cell-based, human
Experimental: as §1

[4] = test system: caspase-9 in PC-3 cells; assay: Caspase-Glo 9 bioluminescent assay, PC-3; type: cell-based, human
Experimental: as §1

[5] = test system: caspase-8 in LNCaP cells; assay: Caspase-Glo 8 bioluminescent assay, LNCaP; type: cell-based, human; conditions: 12.5 µM, throughout 30 hours
Experimental: as §1

[6] = test system: intracellular ROS in LNCaP cells; assay: ROS assay (DHE dye, Cellomics HCS), LNCaP; type: cell-based, human; conditions: LNCaP, 12.5, 25, 50 µM, 24 h
Experimental: (§2) The production of intracellular ROS was detected as described previously. The DHE dye reagent is converted to fluorescent ethidium and intercalates into DNA in response intracellular ROS. Briefly, 10 mM DHE stock solution (in methanol) was diluted 500-fold in HBSS without serum or other additives to yield a 20 µM working solution. After exposure to subditine (1), the cells in the 96-well black plate was washed twice with HBSS and then incubated in 100 µL working solution of DHE at 37°C for 30 minutes. Fluorescence of DCF in each cell was captured, extracted and analyzed with ArrayScan II Data Acquisition and Data Viewer version 3.0 (Cellomics).

[7] = test system: intracellular ROS in PC-3 cells; assay: ROS assay (DHE dye, Cellomics HCS), PC-3; type: cell-based, human; conditions: PC-3, 12.5, 25, 50 µM, 24 h
Experimental: as §2

[8] = test system: LNCaP cells; assay: Cellomics multiparameter cytotoxicity assay, LNCaP; type: cell-based, human
Experimental: Cytotoxicity 3 kit (Thermo Scientific) was used as described previously. Briefly, 24 hours after subditine (1) treatment, MMP dye and the cell permeability dye were added to live cells and incubated for 30 minutes at 37°C. Cells were fixed, permeabilized, blocked with 1x blocking buffer before probing with primary cytochrome c and secondary DyLight 649 conjugated goat anti-mouse IgG antibodies for 1 hour each. Hoechst 33342 was added into the staining solution. Plates were then analyzed using the ArrayScan high content screening (HCS) system (Cellomics, PA, USA). Data were captured, extracted and analyzed with ArrayScan II Data Acquisition and Data Viewer version 3.0.

[9] = test system: p53 expression in PC-3 cells; assay: Western blotting, p53 in PC-3; type: cell-based, human; conditions: PC-3 (p53-null), 24 h
Experimental: (§3) To determine protein expression, 1×10^6 cells/mL were seeded and treated with subditine (1) or paclitaxel for 24 h. Whole cell extracts were prepared as previously described. Briefly, cells were collected, lysed and resolved on 10% SDS-polyacrylamide gels. After electrophoresis, the proteins were transferred to PVDF membranes (Millipore), blocked with 5% nonfat dry milk in PBS-T (0.05% Tween 20) for 1 hour at room temperature. Membranes were probed with primary rabbit anti-Bcl-2, Bcl-xL or p53 antibodies followed by horseradish peroxidase (HRP)-conjugated secondary anti-rabbit antibody (Cell Signaling Technology Inc., CA, USA). Membranes were stripped and reprobed with mouse anti-β-actin antibody as loading control (Santa Cruz Biotechnology Inc.). Protein-antibody complexes were detected with Amersham ECL prime Western blotting detection reagent (GE Healthcare, USA).

[10] = test system: Bcl-2 expression in LNCaP cells; assay: Western blotting, Bcl-2 in LNCaP; type: cell-based, human; conditions: 24 h
Experimental: as §3

[11] = PC-3, after 12 and 24 hours exposure, 12.25 µM

## Cc1ncc2c(=O)n3c(cc2c1C=O)-c1[nH]c2ccccc2c1CC3 [Subditine, subditine]
[1]
  IC50: 30.48 ± 0.08 µM
[2]; [11]
  caspase-3/7 activity: significant increase
[2]; PC-3, time points 6-30 hours
  time of peak caspase-3/7 activity: 18 h
[3]; after 12 and 24 hours exposure, 12.25 µM
  caspase-9 activity: significant increase
[3]; time points 6-30 hours
  time of highest caspase-9 activity: 24 h
[4]; [11]
  caspase-9 activity: significant increase
[4]; PC-3, time points 6-30 hours
  time of highest caspase-9 activity: 24 h
[5]
  caspase 8 activity: No significant fold-change
[6]
  ROS production (DCF/DHE fluorescence level): significantly increased in a dose-dependent manner
[7]
  ROS production (DCF/DHE fluorescence level): significantly increased in a dose-dependent manner
[8]; 24 h, compared to control
  cytochrome c release (cytosolic staining): increased fluorescent-staining in the cytosol
  membrane permeability: higher membrane permeability
[8]; 24 hours
  mitochondrial membrane potential (MMP) fluorescence intensity: dose-dependent reduction
[9]
  p53 expression: did not restore or enhance
[10]
  Bcl-2 expression: down-regulation
